Assay results: a melting point compilation (Tetko et al.)

| melting point [°C] | SMILES |
| --- | --- |
| 200 | COC1CC2C3(C)CCCC2(COC3O)C2C(OC(C)=O)CC3C(C)C(=O)C12C3O (stereo not given) |
| 233 to 234 | O=C(O)c1csc(-c2cccc(Cl)c2Cl)n1 |
| 36.5 | O=C1CCC(c2ccccc2)O1 (stereo not given) |
| -5 | CC1COCc2cc3c(cc21)C(C)(C)C(C)C3(C)C (stereo not given) |
| -83 | CCCCCC1=CCCC1 |
| 250 | COc1ccc(C=C2C(=O)NN=C2c2c(O)c3ccccc3n(C)c2=O)cc1 |
| 119 to 125 | O=C(O)C(Br)=C(Br)C(=O)O |
| 9.5 | CCCCCCCCC=CCCCCCCCC(=O)OC |
| 160 | O=c1oc2cc(O)ccc2s1 |
| 178 to 179 | Cc1ccc(C(=O)C=Cc2ccc(-c3ccc([N+](=O)[O-])cc3)o2)o1 |
| 62 to 66 | O=C=Nc1ccc(Oc2ccc(N=C=O)cc2)cc1 |
| 42 to 43.5 | O=Cc1cccc2ccsc12 |
| 31 to 35 | COc1cc(C)c(C=O)cc1C |
| 203 to 205 | O=C(O)c1ccc(=O)oc1 |
| 25.8 | Cc1c(Cl)cccc1Cl |
| 171 | CC1=NN(c2ccccc2)C(=O)C1=Cc1c(O)c2cccc(C)c2[nH]c1=O |
| 8.9 | CN(C)c1ccccc1N(C)C |
| 110 | O=Nc1c(O)ccc2ccccc12 |
| 41 to 43 | CSc1ccc(Oc2ccc(C(F)(F)F)cc2[N+](=O)[O-])cc1 |
| 107 to 111 | C[C@@](O)(CC(=O)O)C(=O)O |
| 108 to 110 | O=C(Nc1ccccn1)C(C(F)(F)F)C(F)(F)F |
| 87 to 89 | O=C(c1ccc(F)cc1)c1ccc([N+](=O)[O-])cc1 |

| melting point [°C] | SMILES |
| --- | --- |
| 94 to 96 | CC(=O)CCc1c[nH]c2ccccc12 |
| 119 to 120 | N#Cc1ccccc1N=C=S |
| 35 | CC(=O)CCCCC(=O)O |
| 150 | COc1ccc(-c2onc(C(=O)c3ccco3)c2S(=O)(=O)c2ccccc2)cc1 |
| 220 | NS(=O)(=O)c1cc(-c2nnn[nH]2)c(NCc2cccs2)cc1Cl |
| 45 to 46 | O=Cc1ccccc1N1CCOCC1 |
| 78 to 80 | Cc1ccc(/C=C(\C#N)c2nc(-c3ccccc3)cs2)cc1 |
| 185 to 187 | CC(=O)Nc1cccc(-n2nnnc2S)c1 |
| 175 | O=C(Oc1cccc(N=[N+]([O-])c2cccc(OC(=O)c3ccccc3)c2)c1)c1ccccc1 |
| 226 | NC(=O)Nc1ccc(Br)cc1 |
| 186 | O=[N+]([O-])c1ccc(O)c(-c2cc([N+](=O)[O-])ccc2O)c1 |
| 247 to 249 | CCOC(=O)C(C#N)=C(N)c1cc2ccccc2oc1=O |
| 104 | CC(=O)OC1CC2C(C)C(=O)C3(C(OC(C)=O)CC4C5(C)CCCC4(C(OC(C)=O)OC5)C13)C2OC(C)=O (stereo not given) |
| 174 | O=C(C1=NOC2C(=O)N(c3ccccc3)C(=O)C12)c1cccs1 (stereo not given) |
| 74 to 76 | Cn1c(CO)cc2occc21 |
| 68 | O=C(NO)OCc1ccccc1 |
| 259 to 261 | COc1ccc(C[C@H](N)C(=O)O)cc1 |
| 166 | CC(C)(C)C(O)C(Cc1ccc(Cl)cc1)n1cncn1 (stereo not given) |
| 53.5 | CCOC(=O)C=Cc1cccc(C=CC(=O)OCC)c1 |
| 94 to 96 | COC(=O)C(CCSC)NC(=O)c1ccc(C(F)(F)F)cc1 (stereo not given) |
| 200 to 201 | CC(CCC(=O)O)C1CCC2C3CC(O)C4=CC(O)CCC4(C)C3CCC12C (stereo not given) |
| 85 to 89 | Cn1nc(C(F)(F)F)c(-c2ccccc2)c1N |

| melting point [°C] | SMILES |
| --- | --- |
| 41 to 43 | FC(F)(F)c1ccc(N=C=S)cc1 |
| 107 | COC(=O)NCCc1ccccc1NC(C)=O |
| 300 | O=C1NC2NC(=O)NC2N1 (stereo not given) |
| 38 to 40 | CC(O)c1ccccc1C(F)(F)F (stereo not given) |
| 83.5 | CCc1nn(CCCN2CCN(c3cccc(Cl)c3)CC2)c(=O)n1CCOc1ccccc1 |
| 417 to 418 | Oc1c2cccc1Cc1cccc(c1O)Cc1cccc(c1O)Cc1cccc(c1O)Cc1cccc(c1O)Cc1cccc(c1O)C2 |
| 144 to 145 | CC1(c2ccccc2)CC(C(=NOC(=O)Cc2ccccc2)c2cc3ccccc3o2)C1 (stereo not given) |
| 126 | NS(=O)(=O)c1c(F)cc(F)cc1Br |
| 110 | CCCCCCCCCCCC(N)=O |
| 250 | Cc1nc2ccccc2n1CCc1nnc(S)n1N=Cc1ccccc1Cl |
| 178 to 180 | O=C(O)C1CN(C(c2ccccc2)c2ccccc2)C1 |
| 32 | O=S(=O)(Cl)c1cccc(Br)c1 |
| 42 | CC(C)(C)c1ccc(N=C=S)cc1 |
| 141 | NS(=O)(=O)c1cc(F)ccc1F |
| -20 | CN1CCCN(C)C1=O |
| 149 to 152 | C#CCON1C(=O)c2ccccc2C1=O |
| 250 | CSc1nn2c(C(F)(F)F)cc(C(F)(F)F)nc2c1C(N)=O |
| 63 | OC(c1ccccc1)c1cccc(C(F)(F)F)c1 (stereo not given) |
| 149 to 150 | CCOC(=O)c1c(-c2ccccc2)csc1NC(=O)c1ccc(Cl)cc1Cl |
| 112 | C[Si](C)(C)C#CC#C[Si](C)(C)C |
| 117 to 118 | COC(=O)c1sccc1-c1ccc(C=O)o1 |
| 221 | FC(F)(F)c1nnc(S)n1/N=C/c1ccc2c(c1)OCO2 |

| melting point [°C] | SMILES |
| --- | --- |
| 218 | Nc1ccc(C(=O)O)nc1 |
| 137 to 142 | Cc1nc(C(F)(F)F)ccc1C(=O)O |
| 165 | CN(C)c1ccc(N=c2cc(-c3ccccc3)sc(-c3ccccc3)c2)cc1 |
| 92 to 95 | O=C(CS(=O)(=O)c1ccccc1)c1ccccc1 |
| 175 | O=C(O)Cc1cccc(CC(=O)O)c1 |
| 144 to 145 | CC(C)CCC[C@@H](C)[C@H]1CC[C@H]2[C@@H]3CC=C4C[C@@H](OCOc5ccc(Cl)cc5)CC[C@]4(C)[C@H]3CC[C@]12C |
| 77 to 80 | CCOC(=O)C(Cl)=NNc1ccccc1 |
| 34 to 35 | CCC(=O)Oc1cccc2ccccc12 |
| 186 | CC1(C)CC(=O)C(=NNc2cccc([N+](=O)[O-])c2)C(=O)C1 |
| 41 to 46 | COc1ccc(F)cc1C=O |
| 152 | Cn1c(=O)c2c(ncn2CCOC(=O)c2cccnc2)n(C)c1=O |
| 217 to 219 | CC(=O)Nc1nn(C(C)=O)c2ncccc12 |
| 280 to 282 | Clc1ccc(C=NNc2ncnc3c2cnn3-c2ccccc2)cc1 |
| 106 | CCOC(=O)C(C#N)=C1SCCS1 |
| 251 to 252 | Cc1cc(=O)oc2[nH]nc(C)c12 |
| 96 | Cc1cncc([N+](=O)[O-])c1 |
| 34 | Brc1ccc2cccnc2c1 |
| 116 | COc1ccc(Br)cc1C=O |
| 190 | O=[N+]([O-])c1cccc(S(=O)(=O)NCCNS(=O)(=O)c2cccc([N+](=O)[O-])c2)c1 |
| 269 | CC12C=CC(=O)C=C1CCC1C3CC(O)C(O)(C(=O)CO)C3(C)CC(O)C12F (stereo not given) |
| -4 | Cc1ncccn1 |
| 166 | O=P(c1ccccc1)(c1ccccc1)C1CCCCC1 |

| melting point [°C] | SMILES |
| --- | --- |
| 73 to 74 | N#Cc1cc([N+](=O)[O-])ccc1F |
| 83 | COc1cc(Cl)c(Cl)cc1OC |
| 278 | Oc1ccnc(O)c1 |
| 160 to 167 | COC(=O)c1cccc(C(=O)O)c1N |
| 106 | CN1CCN(C(c2ccccc2)c2ccccc2)CC1 |
| 146 | O=C(CCCN1CC=C(n2c(=O)[nH]c3ccccc32)CC1)c1ccc(F)cc1 |
| 209 | N#CC1=C(N)N2C(=C(C#N)C1c1ccc(Cl)cc1)Sc1ccccc12 (stereo not given) |
| 146 | NC(=O)c1nc(-c2ccccc2)n(-c2ccc(Cl)c(COCC(F)(F)C(F)(F)F)c2)n1 |
| 166 | O=C1/C(=C/c2ccccc2O)SC(=S)N1CN1CCOCC1 |
| 72 to 77 | ON=Cc1ccccc1Cl |
| 52 to 53 | Cc1ccccc1CS(=O)(=O)Cl |
| 179 to 182 | CC(C)(C)OC(=O)NC(CC(N)=O)C(=O)O (stereo not given) |
| 210 to 212 | CCCc1c(C)nc(NC(=O)NS(=O)(=O)c2cccs2)nc1O |
| 242 | Cc1cc(O)c(C)cc1N |
| 41.5 | CC1(C)c2ccccc2Oc2ccccc21 |
| 56 to 57 | Nc1ccccc1Cn1cncn1 |
| 118 to 121 | N#CCS(=O)(=O)c1ccc(Cl)cc1Cl |
| 66 to 68 | Cc1noc(-c2ccccc2C=O)n1 |
| -34.8 | CCCCCCCC(=O)OCCCCC |
| 109 to 114 | Cc1ccc(C2(C(=O)O)CC2)cc1 |
| 134 | CCCCCCCCCCCCOc1ccc(C(=O)O)cc1 |
| 230 | O=C(O)c1ccc(O)c([N+](=O)[O-])c1 |

| SMILES | melting point [°C] |
| --- | --- |
| CC(C)(O)C#N | -19 |
| N#Cc1cc(/N=C/C=C/c2ccccc2)n(-c2c(Cl)cc(C(F)(F)F)cc2Cl)n1 | 160 |
| Clc1cccc2c1Oc1ccccc1O2 | 104 |
| CCC1(C2CCC(OC)CC2)C(=O)NC(=O)NC1=O (stereo not given) | 239 to 240 |
| COc1cc2c(cc1OC)C1(O)C(=O)c3ccc4c(c3OC1CO2)C=CC(C)(C)O4 (stereo not given) | 198 |
| Oc1cc(Cl)cc(Cl)c1O | 82.5 |
| Oc1cccc(Cl)c1O | 48.5 |
| COc1cc(CCN)cc(OC)c1OC | 35.5 |
| C=CCC1(C(C)CC)C(=O)NC(=O)NC1=O (stereo not given) | 109 |
| CC(C)(C)C(=O)C1C(=O)c2ccccc2C1=O | 109 |
| CC12CCC3C(CCC4CC(=O)CCC43C)C1CCC2O (stereo not given) | 181 |
| CCOc1nc(NC)nc(NC(=O)NS(=O)(=O)c2ccccc2C(=O)OC)n1 | 194 |
| Cc1cccc([N+](=O)[O-])c1C | 15 |
| ClCc1nc2ccccc2[nH]1 | 146 to 150 |
| CNC(=O)Oc1cc(C)cc(C(C)C)c1 | 87 |
